Patent US11787785B2 (NOVARTIS AG, priority 2021, dated 2023)
Where two headings read alike, the source gives them in different places.

Biological target: T1, WIZ protein (HiBit-WIZ fusion protein) (Homo sapiens, UniProt O95785+Q96SW2)
T1 construct: expressed in transfected cells
Assay: Quantification of WIZ protein levels in HiBit tag fusion protein assay (WIZ HiBit assay in 293T cells)
Format: cell-based
Design: remaining activity / Dmax: dose or concentration left out as unconfirmed
Procedure, shortened: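 Luminescence after LgBit complementation quantified remaining HiBit-WIZ in lysates of single-copy stable 293T lines. Cells dosed ~18 h at 37 °C with 10-point, 5-fold dilutions (highest 25 μM); DMSO set to 100%, fitted curve gave % remaining at 25 μM (Amax).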

[1] = HEK-293T, 100 − Amax, at 25 uM; 293T cells; read-out: % degradation of WIZ (100 − Amax)
[2] = HEK-293T, DMSO-normalized, curve-fitted percentage of WIZ-HiBit remaining at 25 uM; 293T cells; read-out: WIZ Amax
[3] = WIZ HiBit assay in 293T cells; 10-point, 5-fold dose response, highest concentration 25 μM, about 18 hours; read-out: WIZ AC50

T1 sequence (O95785 whole entry, the tested form may be a part): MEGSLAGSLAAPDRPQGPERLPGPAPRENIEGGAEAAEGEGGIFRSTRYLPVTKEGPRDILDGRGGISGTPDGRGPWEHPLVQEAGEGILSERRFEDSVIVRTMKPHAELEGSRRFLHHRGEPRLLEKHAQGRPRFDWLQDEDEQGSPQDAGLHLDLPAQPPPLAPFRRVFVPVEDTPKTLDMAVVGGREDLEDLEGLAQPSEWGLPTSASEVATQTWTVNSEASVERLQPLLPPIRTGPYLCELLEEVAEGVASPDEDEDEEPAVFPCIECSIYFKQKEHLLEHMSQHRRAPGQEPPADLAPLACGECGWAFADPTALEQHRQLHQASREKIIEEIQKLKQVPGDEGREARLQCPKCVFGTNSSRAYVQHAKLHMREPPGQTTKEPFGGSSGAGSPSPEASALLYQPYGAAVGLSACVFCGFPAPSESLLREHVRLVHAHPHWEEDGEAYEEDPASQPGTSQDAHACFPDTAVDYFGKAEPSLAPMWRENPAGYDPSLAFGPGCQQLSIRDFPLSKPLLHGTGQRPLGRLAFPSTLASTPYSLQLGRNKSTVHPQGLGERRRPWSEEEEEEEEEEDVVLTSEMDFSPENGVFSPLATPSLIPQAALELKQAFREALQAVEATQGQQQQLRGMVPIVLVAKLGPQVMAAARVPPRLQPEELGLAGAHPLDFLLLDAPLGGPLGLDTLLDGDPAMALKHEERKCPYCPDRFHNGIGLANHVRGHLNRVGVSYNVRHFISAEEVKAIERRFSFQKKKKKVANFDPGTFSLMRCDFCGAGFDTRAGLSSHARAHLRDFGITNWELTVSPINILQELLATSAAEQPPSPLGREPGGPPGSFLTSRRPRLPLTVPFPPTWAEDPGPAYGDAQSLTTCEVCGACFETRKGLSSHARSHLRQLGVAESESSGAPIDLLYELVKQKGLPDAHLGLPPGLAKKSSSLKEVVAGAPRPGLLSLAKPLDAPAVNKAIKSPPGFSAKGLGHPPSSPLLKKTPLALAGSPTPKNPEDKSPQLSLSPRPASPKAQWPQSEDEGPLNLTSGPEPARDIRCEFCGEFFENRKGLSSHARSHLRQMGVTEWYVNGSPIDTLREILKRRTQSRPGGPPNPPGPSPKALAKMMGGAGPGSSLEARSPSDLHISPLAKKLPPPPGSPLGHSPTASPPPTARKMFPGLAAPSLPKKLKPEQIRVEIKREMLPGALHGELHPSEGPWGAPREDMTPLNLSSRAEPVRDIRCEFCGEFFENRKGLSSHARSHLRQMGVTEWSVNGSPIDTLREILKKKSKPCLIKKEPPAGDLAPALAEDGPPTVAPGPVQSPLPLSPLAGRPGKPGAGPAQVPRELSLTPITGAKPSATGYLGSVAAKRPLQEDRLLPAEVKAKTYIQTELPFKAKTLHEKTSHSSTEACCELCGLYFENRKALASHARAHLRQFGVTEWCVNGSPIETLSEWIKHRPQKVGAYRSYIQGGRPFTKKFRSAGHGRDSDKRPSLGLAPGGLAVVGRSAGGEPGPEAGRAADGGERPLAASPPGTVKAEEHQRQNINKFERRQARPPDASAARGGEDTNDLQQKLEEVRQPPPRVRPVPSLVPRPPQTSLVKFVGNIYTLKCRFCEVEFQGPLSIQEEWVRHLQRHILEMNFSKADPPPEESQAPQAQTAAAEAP
T1 sequence (Q96SW2 whole entry, the tested form may be a part): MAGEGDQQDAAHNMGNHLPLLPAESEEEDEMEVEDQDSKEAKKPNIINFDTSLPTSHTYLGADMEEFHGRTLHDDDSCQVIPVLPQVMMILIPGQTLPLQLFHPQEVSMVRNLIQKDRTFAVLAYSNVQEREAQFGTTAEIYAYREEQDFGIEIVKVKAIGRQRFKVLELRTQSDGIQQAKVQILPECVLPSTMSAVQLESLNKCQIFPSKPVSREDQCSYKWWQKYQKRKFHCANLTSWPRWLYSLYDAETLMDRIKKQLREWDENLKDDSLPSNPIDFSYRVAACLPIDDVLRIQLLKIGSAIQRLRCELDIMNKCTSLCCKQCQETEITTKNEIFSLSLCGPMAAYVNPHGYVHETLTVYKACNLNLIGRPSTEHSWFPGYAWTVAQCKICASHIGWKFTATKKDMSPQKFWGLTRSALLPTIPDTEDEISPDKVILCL
T1 sequence (Q16531 whole entry partner, the tested form may be a part): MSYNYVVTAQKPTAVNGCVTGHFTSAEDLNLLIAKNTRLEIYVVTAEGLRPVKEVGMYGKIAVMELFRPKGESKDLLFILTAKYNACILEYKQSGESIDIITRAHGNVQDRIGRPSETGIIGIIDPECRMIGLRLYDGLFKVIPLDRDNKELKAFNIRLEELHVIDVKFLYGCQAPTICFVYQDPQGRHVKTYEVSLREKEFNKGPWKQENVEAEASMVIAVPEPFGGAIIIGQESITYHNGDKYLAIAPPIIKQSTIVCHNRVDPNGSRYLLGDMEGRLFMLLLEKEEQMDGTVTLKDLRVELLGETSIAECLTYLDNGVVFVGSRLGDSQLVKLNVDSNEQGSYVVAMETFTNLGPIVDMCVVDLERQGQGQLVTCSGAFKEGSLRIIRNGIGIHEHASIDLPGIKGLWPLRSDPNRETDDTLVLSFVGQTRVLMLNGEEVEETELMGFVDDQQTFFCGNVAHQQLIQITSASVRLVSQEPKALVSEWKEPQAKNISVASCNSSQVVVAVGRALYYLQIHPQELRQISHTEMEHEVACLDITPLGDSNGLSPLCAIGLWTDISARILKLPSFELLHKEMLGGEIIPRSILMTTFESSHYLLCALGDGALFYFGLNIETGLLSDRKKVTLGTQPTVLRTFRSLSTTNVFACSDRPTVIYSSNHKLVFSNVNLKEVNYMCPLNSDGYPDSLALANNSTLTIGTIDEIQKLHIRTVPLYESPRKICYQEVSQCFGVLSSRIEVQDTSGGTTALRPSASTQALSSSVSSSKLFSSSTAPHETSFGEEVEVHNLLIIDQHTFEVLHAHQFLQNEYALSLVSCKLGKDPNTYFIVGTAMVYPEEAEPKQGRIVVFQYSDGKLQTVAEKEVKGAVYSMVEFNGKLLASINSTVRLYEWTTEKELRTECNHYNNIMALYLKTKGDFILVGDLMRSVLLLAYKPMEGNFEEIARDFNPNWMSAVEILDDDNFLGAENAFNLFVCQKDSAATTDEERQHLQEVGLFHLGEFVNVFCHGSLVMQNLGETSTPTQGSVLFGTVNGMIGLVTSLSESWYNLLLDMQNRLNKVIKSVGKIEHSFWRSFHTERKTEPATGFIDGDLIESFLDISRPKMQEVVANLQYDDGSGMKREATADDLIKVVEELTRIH

SMILES	Dmax at 25 µM [1] [%]	remaining activity at 25 µM [2] [%]	DC50 [3] [nM]	Dmax (HEK-293T, read-out: % degradation of WIZ (100 − Amax)) [%]	remaining activity (HEK-293T, read-out: WIZ Amax) [%]	DC50 (read-out: WIZ AC50; WIZ HiBit assay in 293T cells; 10-point, 5-fold dose response, highest concentration 25 μM, about 18 hours) [nM]
O=C1CCN(c2cnn3ccc(CN4C[C@H]5C[C@@H]4CN5CC4CCCCC4)cc23)C(=O)N1 [Example 234, 1-(5-(((1R,4R)-5-(cyclohexylmethyl)-2,5-diazabicyclo[2.2.1]heptan-2-yl)methyl)pyrazolo[1,5-a]pyridin-3-yl)dihydropyrimidine-2,4(1H,3H)-dione]	42	58	942	–	–	–
O=C1CCN(c2cnn3ccc(CN4CCN(CC5CCCCC5)[C@@H](C(F)F)C4)cc23)C(=O)N1 [Example 246, (R)-1-(5-((4-(cyclohexylmethyl)-3-(difluoromethyl)piperazin-1-yl)methyl)pyrazolo[1,5-a]pyridin-3-yl)dihydropyrimidine-2,4(1H,3H)-dione]	0	100	> 25000	–	–	–
CCS(=O)(=O)N1CCN(Cc2ccn3ncc(N4CCC(=O)NC4=O)c3c2)C[C@@H]1C [Example 339, (S)-1-(5-((4-(ethylsulfonyl)-3-methylpiperazin-1-yl)methyl)pyrazolo[1,5-a]pyridin-3-yl)dihydropyrimidine-2,4(1H,3H)-dione]	35	65	715	–	–	–
C[C@@H]1CN(Cc2ccn3ncc(N4CCC(=O)NC4=O)c3c2)C[C@H](C)N1CC1CCOCC1 [Example 256, 1-(5-(((3S,5R)-3,5-dimethyl-4-((tetrahydro-2H-pyran-4-yl)methyl)piperazin-1-yl)methyl)pyrazolo[1,5-a]pyridin-3-yl)dihydropyrimidine-2,4(1H,3H)-dione]	78	22	186	–	–	–
CC(C)CN1CC[C@@H](Cc2ccn3ncc(N4CCC(=O)NC4=O)c3c2)C[C@H]1C [Example 77]	68	32	77	–	–	–
CC[C@H]1CN(Cc2ccn3ncc(N4CCC(=O)NC4=O)c3c2)CCN1CC1CCOCC1 [Example 227, (S)-1-(5-((3-ethyl-4-((tetrahydro-2H-pyran-4-yl)methyl)piperazin-1-yl)methyl)pyrazolo[1,5-a]pyridin-3-yl)dihydropyrimidine-2,4(1H,3H)-dione]	60	40	956	–	–	–
O=C1CCN(c2cnn3ccc(CC4(F)CCN(CC5CCC5)CC4)cc23)C(=O)N1 [Example 125, 1-(5-((1-(cyclobutylmethyl)-4-fluoropiperidin-4-yl)methyl)pyrazolo[1,5-a]pyridin-3-yl)dihydropyrimidine-2,4(1H,3H)-dione]	55	45	596	–	–	–
COC[C@H]1CN(Cc2ccn3ncc(N4CCC(=O)NC4=O)c3c2)CCN1CC1CCCCC1 [Example 244, (R)-1-(5-((4-(cyclohexylmethyl)-3-(methoxymethyl)piperazin-1-yl)methyl)pyrazolo[1,5-a]pyridin-3-yl)dihydropyrimidine-2,4(1H,3H)-dione]	53	47	1180	–	–	–
Cc1ccccc1CN1CCC(Cc2ccn3ncc(N4CCC(=O)NC4=O)c3c2)CC1 [Example 41, 1-(5-((1-(2-methylbenzyl)piperidin-4-yl)methyl)pyrazolo[1,5-a]pyridin-3-yl)dihydropyrimidine-2,4(1H,3H)-dione]	70	30	27	–	–	–
O=C1CCN(c2cnn3ccc(CC4CCN(CC5CCNCC5)CC4)cc23)C(=O)N1 [Example 63]	36	64	> 25000	–	–	–
CC(C)CN1CCN(Cc2ccn3ncc(N4CCC(=O)NC4=O)c3c2)CC1 [Example 186, 1-(5-((4-isobutylpiperazin-1-yl)methyl)pyrazolo[1,5-a]pyridin-3-yl)dihydropyrimidine-2,4(1H,3H)-dione]	79	21	76	–	–	–
C[C@H]1C[C@@H](Cc2ccn3ncc(N4CCC(=O)NC4=O)c3c2)CCN1CC1CCC(F)(F)CC1 [Example 74]	90	10	3	–	–	–
O=C1CCN(c2cnn3ccc(CC4CCN(CCC5CCCC5)CC4)cc23)C(=O)N1 [Example 16, 1-(5-((1-(2-cyclopentylethyl)piperidin-4-yl)methyl)pyrazolo[1,5-a]pyridin-3-yl)dihydropyrimidine-2,4(1H,3H)-dione]	84	16	18	–	–	–
O=C1CCN(c2cnn3ccc(CN4CCN5CCC[C@@H]5C4)cc23)C(=O)N1 [Example 261, (R)-1-(5-((hexahydropyrrolo[1,2-a]pyrazin-2(1H)-yl)methyl)pyrazolo[1,5-a]pyridin-3-yl)dihydropyrimidine-2,4(1H,3H)-dione]	63	37	417	–	–	–
CC(C)(C1CCC(F)(F)CC1)N1CCN(Cc2ccn3ncc(N4CCC(=O)NC4=O)c3c2)CC1 [Example 181, 1-(5-((4-(2-(4,4-difluorocyclohexyl)propan-2-yl)piperazin-1-yl)methyl)pyrazolo[1,5-a]pyridin-3-yl)dihydropyrimidine-2,4(1H,3H)-dione]	–	–	–	75	25	30
C[C@@H]1C[C@H](Cc2ccn3ncc(N4CCC(=O)NC4=O)c3c2)CCN1CC1CCC(F)(F)CC1 [Example 78]	83	17	10	–	–	–
O=C1CCN(c2cnn3ccc(CC4CCN(Cc5cccc(C(F)(F)F)c5)CC4)cc23)C(=O)N1 [Example 25, 1-(5-((1-(3-(trifluoromethyl)benzyl)piperidin-4-yl)methyl)pyrazolo[1,5-a]pyridin-3-yl)dihydropyrimidine-2,4(1H,3H)-dione]	76	24	40	–	–	–
CC(c1ccccc1)N1CCC(Cc2ccn3ncc(N4CCC(=O)NC4=O)c3c2)CC1 (stereo not drawn) [Example 26, 1-(5-((1-(1-phenylethyl)piperidin-4-yl)methyl)pyrazolo[1,5-a]pyridin-3-yl)dihydropyrimidine-2,4(1H,3H)-dione]	76	24	297	–	–	–
C[C@H]1CN(Cc2ccn3ncc(N4CCC(=O)NC4=O)c3c2)CCN1CC1CCCCC1 [Example 192, (S)-1-(5-((4-(cyclohexylmethyl)-3-methylpiperazin-1-yl)methyl)pyrazolo[1,5-a]pyridin-3-yl)dihydropyrimidine-2,4(1H,3H)-dione]	86	14	19	–	–	–
C[C@@H]1C[C@H](Cc2ccn3ncc(N4CCC(=O)NC4=O)c3c2)CCN1CC1CCCCC1 [Example 76]	81	19	36	–	–	–
O=C1CCN(c2cnn3ccc(CC4CCN(C(=O)C5(C(F)(F)F)CC5)CC4)cc23)C(=O)N1 [Example 100]	42	58	755	–	–	–
Cc1ccc(F)cc1CN1CCC(Cc2ccn3ncc(N4CCC(=O)NC4=O)c3c2)CC1 [Example 58, 1-(5-((1-(5-fluoro-2-methylbenzyl)piperidin-4-yl)methyl)pyrazolo[1,5-a]pyridin-3-yl)dihydropyrimidine-2,4(1H,3H)-dione]	63	37	33	–	–	–
C[C@@H]1CC(CN2CCN(Cc3ccn4ncc(N5CCC(=O)NC5=O)c4c3)CC2)C[C@H](C)O1 (stereo partly drawn) [Example 193, 1-(5-((4-(((2R,6S)-2,6-dimethyltetrahydro-2H-pyran-4-yl)methyl)piperazin-1-yl)methyl)pyrazolo[1,5-a]pyridin-3-yl)dihydropyrimidine-2,4(1H,3H)-dione]	86	14	10	–	–	–
O=C1CCN(c2cnn3ccc(CC4CCNCC4)cc23)C(=O)N1 [Example 108, 1-(5-(piperidin-4-ylmethyl)pyrazolo[1,5-a]pyridin-3-yl)dihydropyrimidine-2,4(1H,3H)-dione]	34	66	1340	–	–	–
C[C@H]1C[C@H](Cc2ccn3ncc(-n4cc(F)c(=O)[nH]c4=O)c3c2)CCN1CC1CCC(F)(F)CC1 [Example 350, 1-(5-(((2S,4R)-1-((4,4-difluorocyclohexyl)methyl)-2-methylpiperidin-4-yl)methyl)pyrazolo[1,5-a]pyridin-3-yl)-5-fluoropyrimidine-2,4(1H,3H)-dione]	90	10	28	–	–	–
O=C1CCN(c2cnn3ccc(CN4CCN(CCC5CCCCC5)C(=O)C4)cc23)C(=O)N1 [Example 243, 1-(5-((4-(2-cyclohexylethyl)-3-oxopiperazin-1-yl)methyl)pyrazolo[1,5-a]pyridin-3-yl)dihydropyrimidine-2,4(1H,3H)-dione]	13	87	3060	–	–	–
O=C1CCN(c2cnn3ccc(CC4CCN(C(=O)c5ccccc5)CC4)cc23)C(=O)N1 [Example 101]	33	67	> 25000	–	–	–
O=C1CCN(c2cnn3ccc(CN4CCN(C5CCCCC5)CC4)cc23)C(=O)N1 [Example 338, 1-(5-((4-cyclohexylpiperazin-1-yl)methyl)pyrazolo[1,5-a]pyridin-3-yl)dihydropyrimidine-2,4(1H,3H)-dione]	83	17	33	–	–	–
